Experimental findings from patent US20150119251A1, “AGRICULTURAL PLANT-PROTECTING AGENTS CONTAINING DIPEPTIDE DERIVATIVE AS ACTIVE INGREDIENT” (REPUBLIC OF KOREA (RURAL DEVELOPMENT ADMINISTRATION), priority 2012, published 2015) are described below.

Square brackets hold non-standard residues; d marks the D form. Peptide text beside a SMILES is read from it. * marks the point of attachment. ξ: configuration not given here. Ile(3ξ) = CCC(C)[C@H](N)C(=O)O; Boc = CC(C)(C)OC(=O)*; OtBu = CC(C)(C)O*

This assay relates to tobacco bacterial rot (Pectobacterium carotovorum). Nature of the assay: Suppression of tobacco bacterial rot. The assay is classed as in vivo, Pectobacterium carotovorum SCC1. As for the experimental part:
A tobacco or cucumber was sown in a plastic pot with a diameter of 10 cm×13 cm, and then, 12 pots were added in a yellow box. After seeding, 100 μL was inoculated to the cotyledons of cucumber or tobacco, in which first leaf was started to come out. The test compounds were dissolved in 20% methanol to make a stock solution, and then, the stock solution was diluted to the concentrations of 1, 10, and 100 ppm.
After 7 days, the pathogen of a plant bacterial rot (Pectobacterium carotovorum SCC1) was cultured in a TSA medium for 27 hours; and then, the cultured pathogen was sprayed in a concentration of 10^8 cfu/mL to the plant leaves, and cultured at 30° C. for 3 days. The plant anthracnose germ (Colletotrichum orbiculare) was cultured in a GBA (Green bean agar) medium to induce spores for about 2 to 3 weeks. The germ was sprayed in a concentration of 10^5 cell/mL and then cultured at 26° C. for 1 day. When fourth or fifth leaf came out, 200 μL of each of the test compounds was inoculated to third leaf. After 7 days, the pathogen of the plant bacterial rot was sprayed to the plant leaves in the concentration of 10^8 cfu/mL, and then cultured at 30° C. for 3 days.
The investigation was performed with naked eyes, and the lesion relative areas were investigated until 0 to 100% according to the shortness degrees of the bacterial rot. The anthracnose was investigated by counting the number of lesions occurred on the leaves.

Turning to `COC(=O)[C@H](CC(C)C)NC(=O)[C@H](CO)NC(=O)OC(C)(C)C` [Compound 1] (Boc-Ser-Leu-OMe), the Lesion outbreak rate is listed as 73% (Table 3, tobacco, 1 ppm); 10% (Table 3, tobacco, 10 ppm); 57% (Table 3, tobacco, 100 ppm).
Turning to `COC(=O)[C@H](CC(C)C)NC(=O)[C@@H](N)CO` [Compound 2] (H-Ser-Leu-OMe), the Lesion outbreak rate is, setting by setting: (Table 3, tobacco, 1 ppm) 60%; (Table 3, tobacco, 10 ppm) 39%; (Table 3, tobacco, 100 ppm) 41%.
Take `COC(=O)CNC(=O)[C@H](CC(C)C)NC(=O)OC(C)(C)C` [Compound 3] (Boc-Leu-Gly-OMe): the Lesion outbreak rate is 13% (Table 3, tobacco, 1 ppm); 68% (Table 3, tobacco, 10 ppm); 80% (Table 3, tobacco, 100 ppm).
In the same order, the values of `CCOC(=O)[C@H](C)NC(=O)[C@H](CC(C)C)NC(=O)OC(C)(C)C` [Compound 9] (Boc-Leu-Ala-OEt) are 90%, 53% and 82%.
The corresponding values for `CCOC(=O)[C@H](C)NC(=O)[C@@H](N)CC(C)C` [Compound 10] (H-Leu-Ala-OEt) are 80%, 73% and 87%.
In the same order, the values of `CC(C)C[C@H](N)C(=O)N[C@@H](C)C(=O)O` [Compound 11] (H-Leu-Ala-OH) are 30%, 46% and 21%.
`COC(=O)[C@H](C)NC(=O)[C@@H](NC(=O)OC(C)(C)C)C(C)C` [Compound 12] (Boc-Val-Ala-OMe): the Lesion outbreak rate stood at 45% (Table 6, tobacco, 1 ppm); 33% (Table 6, tobacco, 10 ppm); 25% (Table 6, tobacco, 100 ppm).
Turning to `COC(=O)[C@H](C)NC(=O)[C@H](C)NC(=O)OC(C)(C)C` [Compound 13] (Boc-Ala-Ala-OMe), the Lesion outbreak rate runs as follows: (Table 6, tobacco, 1 ppm) 100%; (Table 6, tobacco, 10 ppm) 100%; (Table 6, tobacco, 100 ppm) 28%.
In turn, `COC(=O)[C@H](Cc1c[nH]c2ccccc12)NC(=O)CNC(=O)OC(C)(C)C` [Compound 16] (Boc-Gly-Trp-OMe) yielded a Lesion outbreak rate (Table 6, tobacco, 1 ppm) of 25%; a Lesion outbreak rate (Table 6, tobacco, 10 ppm) of 25%; a Lesion outbreak rate (Table 6, tobacco, 100 ppm) of 53%.
For the molecule `COC(=O)[C@H](Cc1c[nH]c2ccccc12)NC(=O)[C@@H](NC(=O)OC(C)(C)C)C(C)C` [Compound 17] (Boc-Val-Trp-OMe), the Lesion outbreak rate is, setting by setting: (Table 6, tobacco, 1 ppm) 100%; (Table 6, tobacco, 10 ppm) 25%; (Table 6, tobacco, 100 ppm) 100%.
For the molecule `COC(=O)CNC(=O)CNC(=O)OC(C)(C)C` [Compound 18] (Boc-Gly-Gly-OMe), the Lesion outbreak rate was found to be 80% (Table 6, tobacco, 1 ppm); 75% (Table 6, tobacco, 10 ppm); 68% (Table 6, tobacco, 100 ppm).
The corresponding values for `COC(=O)[C@@H]1CCCN1C(=O)[C@H](Cc1ccccc1)NC(=O)OC(C)(C)C` [Compound 19] (Boc-Phe-Pro-OMe) are 49%, 42% and 50%.
In the same order, the values of `COC(=O)[C@@H]1CCCN1C(=O)[C@H](C)NC(=O)OC(C)(C)C` [Compound 20] (Boc-Ala-Pro-OMe) are 56%, 63% and 51%.
The corresponding values for `COC(=O)[C@@H]1CCCN1C(=O)[C@@H](NC(=O)OC(C)(C)C)C(C)C` [Compound 21] (Boc-Val-Pro-OMe) are 37%, 46% and 35%.
Consider `COC(=O)[C@@H]1CCCN1C(=O)[C@H](CC(C)C)NC(=O)OC(C)(C)C` [Compound 22] (Boc-Leu-Pro-OMe), for which the Lesion outbreak rate reads like this: (Table 6, tobacco, 1 ppm) 35%; (Table 6, tobacco, 10 ppm) 24%; (Table 6, tobacco, 100 ppm) 46%.
The corresponding values for `COC(=O)[C@@H]1CCCN1C(=O)[C@H](CCC(N)=O)NC(=O)OC(C)(C)C` [Compound 23] (Boc-Gln-Pro-OMe) are 25%, 52% and 36%.
Turning to `COC(=O)C1CCCN1C(=O)C(NC(=O)OC(C)(C)C)C(C)O` (stereo not drawn) [Compound 24] (Boc-Thr-Pro-OMe; configuration not given here), the Lesion outbreak rate by setting is: (Table 4, tobacco, 1 ppm) 13%; (Table 4, tobacco, 10 ppm) 65%; (Table 4, tobacco, 100 ppm) 33%.
As to `COC(=O)[C@@H]1CCCN1C(=O)[C@H](CC(=O)OC(C)(C)C)NC(=O)OC(C)(C)C` [Compound 25] (Boc-Asp(OtBu)-Pro-OMe), the Lesion outbreak rate was 50% (Table 4, tobacco, 1 ppm); 70% (Table 4, tobacco, 10 ppm); 50% (Table 4, tobacco, 100 ppm).
As to `COC(=O)[C@@H]1CCCN1C(=O)[C@H](CC(N)=O)NC(=O)OC(C)(C)C` [Compound 26] (Boc-Asn-Pro-OMe), the Lesion outbreak rate (Table 4, tobacco, 1 ppm) is on record as 63%; the Lesion outbreak rate (Table 4, tobacco, 10 ppm) amounted to 23%; the Lesion outbreak rate (Table 4, tobacco, 100 ppm) worked out at 60%.
Molecule `COC(=O)[C@@H]1CCCN1C(=O)[C@@H]1CCCN1C(=O)OC(C)(C)C` [Compound 27] (Boc-Pro-Pro-OMe) had a Lesion outbreak rate (Table 4, tobacco, 1 ppm) of 33%; a Lesion outbreak rate (Table 4, tobacco, 10 ppm) of 30%; a Lesion outbreak rate (Table 4, tobacco, 100 ppm) of 20%.
Consider `COC(=O)[C@@H]1CCCN1C(=O)[C@H](CCCCNC(=O)OC(C)(C)C)NC(=O)OC(C)(C)C` [Compound 28] (Boc-Lys(Boc)-Pro-OMe), for which the Lesion outbreak rate reads like this: (Table 4, tobacco, 1 ppm) 20%; (Table 4, tobacco, 10 ppm) 80%; (Table 4, tobacco, 100 ppm) 13%.
For the molecule `COC(=O)[C@@H]1CCCN1C(=O)[C@H](Cc1c[nH]cn1)NC(=O)OC(C)(C)C` [Compound 29], the Lesion outbreak rate runs as follows: (Table 4, tobacco, 1 ppm) 63%; (Table 4, tobacco, 10 ppm) 43%; (Table 4, tobacco, 100 ppm) 63%.
For the molecule `COC(=O)[C@@H]1CCCN1C(=O)[C@H](CCC(=O)OC(C)(C)C)NC(=O)OC(C)(C)C` [Compound 30] (Boc-Glu(OtBu)-Pro-OMe), the Lesion outbreak rate is, setting by setting: (Table 4, tobacco, 1 ppm) 23%; (Table 4, tobacco, 10 ppm) 36%; (Table 4, tobacco, 100 ppm) 13%.
In the same order, the values of `COC(=O)[C@@H]1CCCN1C(=O)[C@H](CCCNC(=NC(=O)OCc1ccccc1)NC(=O)OCc1ccccc1)NC(=O)OC(C)(C)C` [Compound 31] are 63%, 56% and 73%.
In the same order, the values of `COC(=O)[C@@H]1CCCN1C(=O)[C@H](Cc1ccc(O)cc1)NC(=O)OC(C)(C)C` [Compound 32] (Boc-Tyr-Pro-OMe) are 78%, 30% and 60%.
The corresponding values for `COC(=O)[C@H]1CCCN1C(=O)[C@@H]1CCCN1C(=O)OC(C)(C)C` [Compound 33] (Boc-Pro-[dP]-OMe) are 80%, 38% and 18%.
In turn, `CCC(C)[C@H](NC(=O)OC(C)(C)C)C(=O)N1CCC[C@@H]1C(=O)OC` (stereo partly drawn) [Compound 34] (Boc-[Ile(3ξ)]-[dP]-OMe) had a Lesion outbreak rate (Table 4, tobacco, 1 ppm) of 35%; a Lesion outbreak rate (Table 4, tobacco, 10 ppm) of 41%; a Lesion outbreak rate (Table 4, tobacco, 100 ppm) of 24%.
The corresponding values for `COC(=O)[C@H]1CCCN1C(=O)[C@H](Cc1ccc(O)cc1)NC(=O)OC(C)(C)C` [Compound 35] (Boc-Tyr-[dP]-OMe) are 18%, 43% and 50%.
`COC(=O)[C@H]1CCCN1C(=O)[C@H](CC(C)C)NC(=O)OC(C)(C)C` [Compound 36] (Boc-Leu-[dP]-OMe): the Lesion outbreak rate by setting is: (Table 4, tobacco, 1 ppm) 45%; (Table 4, tobacco, 10 ppm) 41%; (Table 4, tobacco, 100 ppm) 38%.
In the same order, the values of `COC(=O)[C@H]1CCCN1C(=O)[C@H](CC(=O)OC(C)(C)C)NC(=O)OC(C)(C)C` [Compound 37] (Boc-Asp(OtBu)-[dP]-OMe) are 5%, 5% and 43%.
In the same order, the values of `COC(=O)[C@H]1CCCN1C(=O)CNC(=O)OC(C)(C)C` [Compound 38] (Boc-Gly-[dP]-OMe) are 13%, 80% and 60%.
In the same order, the values of `COC(=O)[C@H]1CCCN1C(=O)[C@H](CO)NC(=O)OC(C)(C)C` [Compound 39] (Boc-Ser-[dP]-OMe) are 35%, 10% and 43%.
In the case of `COC(=O)[C@H]1CCCN1C(=O)[C@H](CCSC)NC(=O)OC(C)(C)C` [Compound 40] (Boc-Met-[dP]-OMe), the Lesion outbreak rate is, setting by setting: (Table 4, tobacco, 1 ppm) 8%; (Table 4, tobacco, 10 ppm) 45%; (Table 4, tobacco, 100 ppm) 43%.
As for `COC(=O)[C@H]1CCCN1C(=O)[C@H](CC(N)=O)NC(=O)OC(C)(C)C` [Compound 41] (Boc-Asn-[dP]-OMe), the Lesion outbreak rate worked out at 30% (Table 4, tobacco, 1 ppm); 50% (Table 4, tobacco, 10 ppm); 18% (Table 4, tobacco, 100 ppm).
